For orientation: IC50 means the concentration that gives 50% inhibition. What is called Ki is a dissociation constant, usually derived from enzyme kinetics or from competition with a known ligand. As a reminder, the inhibition is the drop in the measured response relative to a control, in per cent.

The structures appear in SMILES notation. Active and inactive are the calls of the source. The rule behind the calls is not given here.

The values that follow come from ChEMBL document CHEMBL3351541, “Synthesis and analysis of potential α1,3-fucosyltransferase inhibitors” (Bioorg Med Chem, 2014).

The target of assay [1] is T1, 4-galactosyl-N-acetylglucosaminide 3-alpha-L-fucosyltransferase 9 (Homo sapiens, UniProt Q9Y231).
T1 sequence (Q9Y231 whole entry): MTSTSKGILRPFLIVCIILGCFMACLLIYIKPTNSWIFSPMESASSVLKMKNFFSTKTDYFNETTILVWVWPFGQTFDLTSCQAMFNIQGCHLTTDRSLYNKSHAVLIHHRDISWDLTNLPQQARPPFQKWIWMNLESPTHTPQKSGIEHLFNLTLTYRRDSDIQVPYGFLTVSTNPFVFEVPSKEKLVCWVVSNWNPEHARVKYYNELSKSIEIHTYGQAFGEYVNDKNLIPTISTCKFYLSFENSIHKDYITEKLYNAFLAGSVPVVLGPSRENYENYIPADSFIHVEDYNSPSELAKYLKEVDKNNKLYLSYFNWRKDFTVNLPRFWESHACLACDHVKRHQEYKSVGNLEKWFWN
Description: (§1) Inhibition of human recombinant alpha1,3-fucosyltransferase 9 using GDP-[14C]-fucose preincubated for 30 mins by liquid scintillation counting.

Assay [2] concerns the target T2, 4-galactosyl-N-acetylglucosaminide 3-alpha-L-fucosyltransferase 9 (Homo sapiens) (UniProt Q9Y231).
T2 sequence (whole entry): T1 sequence (Q9Y231 whole entry)
The description is as §1. More on the design: concentration or dose not given beside the values.

The subject of assay [3] is Helicobacter pylori. Description: Inhibition of Helicobacter pylori recombinant alpha1,3-fucosyltransferase using GDP-[14C]-fucose preincubated for 30 mins by liquid scintillation counting.
The test system of assay [4] is Helicobacter pylori. Description: Inhibition of Helicobacter pylori recombinant alpha1,3-fucosyltransferase using GDP-[14C]-fucose assessed as remaining activity preincubated for 30 mins by liquid scintillation counting.

Turning to `Nc1nc2c(ncn2[C@@H]2O[C@H](COP(=O)(O)OP(=O)(O)OCc3cn([C@@H]4O[C@H](CO)[C@H](O)[C@H](O)[C@H]4O)nn3)[C@@H](O)[C@H]2O)c(=O)[nH]1`, in assay [1], the IC50 amounted to 247 µM and the Ki is 186 µM.
Regarding `Nc1nc2c(ncn2[C@@H]2O[C@H](COP(=O)(O)OP(=O)(O)OCc3cn([C@@H]4O[C@H](CO)[C@@H](O[C@@H]5O[C@H](CO)[C@H](O)[C@H](O)[C@H]5O)[C@H](O)[C@H]4O)nn3)[C@@H](O)[C@H]2O)c(=O)[nH]1`, the inhibition in assay [2] was 45%.
As for `Nc1nc2c(ncn2[C@@H]2O[C@H](COP(=O)(O)OP(=O)(O)O)[C@@H](O)[C@H]2O)c(=O)[nH]1`, in assay [1], the IC50 amounted to 59 µM and the inhibitory constant (Ki) stood at 77.9 µM. In addition, in assay [3], the inhibition is less than 75%.
With `C[C@@H]1O[C@H](n2cc(COP(=O)(O)OP(=O)(O)OC[C@H]3O[C@@H](n4cnc5c(=O)[nH]c(N)nc54)[C@H](O)[C@@H]3O)nn2)[C@@H](O)[C@H](O)[C@@H]1O`, in assay [1], the IC50 stood at 139 µM and the Ki is 137 µM.
For the compound `CC(=O)Nc1nc2c(ncn2[C@@H]2O[C@H](COP(=O)(O)OP(=O)(O)OCc3cn([C@@H]4O[C@H](COC(C)=O)[C@H](OC(C)=O)[C@H](OC(C)=O)[C@H]4OC(C)=O)nn3)[C@@H](OC(C)=O)[C@H]2OC(C)=O)c(=O)[nH]1`, in assay [2], the inhibition entry was “inactive”. Besides, the inhibition in assay [3] came out at 45%.
Regarding `NC[C@@H]1O[C@H](OP(=O)(O)OP(=O)(O)OC[C@H]2O[C@@H](n3cnc4c(=O)[nH]c(N)nc43)[C@H](O)[C@@H]2O)[C@@H](O)[C@H](O)[C@@H]1O`, the inhibition in assay [2] was 78%. In assay [1], the IC50 came to 104 µM and the Ki amounted to 102 µM.
In the case of `Nc1nc2c(ncn2[C@H]2C[C@H](O)[C@@H](CO[P@](=O)(O)OP(=O)(O)O)O2)c(=O)[nH]1`, the Activity in assay [4] stood at 60%. The inhibition in assay [2] was less than 80%. In assay [1], the IC50 was determined as 49 µM and the Ki was 50.3 µM.
For the compound `O=c1[nH]cnc2c1ncn2[C@@H]1O[C@H](COP(=O)(O)OP(=O)(O)O)[C@@H](O)[C@H]1O`, the figures for the inhibition in assay [2] and in assay [3] were 30% and 65%, respectively.
For `C[C@@H](O)[C@H](O)[C@H](O)[C@@H](O)C=O` the same measures were “inactive” and “Active”.
For the compound `Nc1nc2c(ncn2[C@@H]2O[C@H](COP(=O)(O)O)[C@@H](O)[C@H]2O)c(=O)[nH]1`, in assay [2], the inhibition result was “inactive”. Besides, the inhibition entry in assay [3] is “Active”.
As for `Nc1nc2c(ncn2[C@@H]2O[C@H](COP(=O)(O)OP(=O)(O)OP(=O)(O)O)[C@@H](O)[C@H]2O)c(=O)[nH]1` [GUANOSINE TRIPHOSPHATE], the inhibition in assay [2] was less than 75%. In addition, in assay [1], the IC50 amounted to 94 µM and the Ki worked out at 80.7 µM. In addition, the inhibition in assay [3] is less than 75%.
As for `C[C@H]1O[C@@H](n2cc(COP(=O)(O)OP(=O)(O)OC[C@H]3O[C@@H](n4cnc5c(=O)[nH]c(N)nc54)[C@H](O)[C@@H]3O)nn2)[C@H](O)[C@@H](O)[C@H]1O`, in assay [1], the IC50 was 134 µM and the Ki was found to be 190 µM.
`Nc1ncnc2c1ncn2[C@@H]1O[C@H](COP(=O)(O)OP(=O)(O)O)[C@@H](O)[C@H]1O`: the inhibition result in assay [2] is “inactive”. For the same compound, the inhibition entry in assay [3] was “Active”.
